The numbers were not newly measured in patent US20250000878A1 (priority 2014, published 2025), which cites them from elsewhere.

In series [1] the test system is beta amyloid. To be noted: AD transgenic mice.
For series [2] the following is noted: in vivo.
The conditions of series [3]: 0.2 mg pure huperzine A orally.
Series [4] has as its system patients with mild to moderate VaD. To be noted: 100 mcg twice daily for 12 weeks.
For series [5], the system named is patients with possible or probable AD. To be noted: 0.1-0.2 mg twice daily, active group.
The test system of series [6] is elderly men and women.

Turning to `Cn1c(=O)c2c(ncn2C)n(C)c1=O` [Caffeine], in series [1], the “reduction of beta amyloid deposition, entorhinal cortex” value was 46% and the “reduction of beta amyloid deposition, hippocampus” value was 40%. For the same compound, in series [2], the half life is 4 to 6 h and the “time to peak blood levels” value was “within one hour”.

Consider `C/C=C1\[C@H]2C=C(C)C[C@]1(N)c1ccc(=O)[nH]c1C2` [Huperzine A], for which, in series [3], the terminal half life entry is given as “approximately 6 hours”. In addition, the cognitive function result in series [4] is “significantly improved”. The “proportion of patients with a four point improvement on the ADAS-cog” value in series [5] is given as 56%.

Turning to `C[C@]12CC[C@H](O)CC1=CC[C@@H]1[C@@H]2CC[C@]2(C)C(=O)CC[C@@H]12` [DHEA, dehydroepiandrosterone], the insulin resistance entry in series [6] (50 mg per day, one year) is given as “significant improvement”. In addition, the “reduction of visceral fat measured by MRI” value in series [6] (50 mg per day, one year, mean age 70 years) is “about 10%”. Further, the “circulating cytokines TNF alpha and IL-6” value in series [6] (vs placebo controls) is listed as “significant decrease”.
